Values after ≈ are worked out from the molar mass of the structure shown.

What all share (type): cell-based
The subject of test [1] is E. coli ATCC 25922 (NB27001). Nature of the test: MIC by broth microdilution, E. coli NB27001. To be noted: 35° C., 20 hours; for MIC: Escherichia coli, ATCC25922, CAMHB, read-out: Antibacterial activity (MIC) NB27001. The essentials: (§1)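 CLSI broth microdilution in cation-adjusted Mueller-Hinton broth, inoculum about 5×10^5 CFU/mL from overnight MHA cultures. Two-fold compound dilutions in 1% final DMSO; plates incubated 20 h at 35° C in ambient air. MIC (μg/mL) was the lowest concentration preventing visible growth, checked by OD600 and visual inspection.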

Test [2] has as its system S. aureus NB01080 fluoroquinolone-resistant clinical isolate. Nature of the test: MIC by broth microdilution, S. aureus NB01080. Conditions: CAMHB, 35° C., 20 hours; for MIC: Staphylococcus aureus, read-out: Antibacterial activity (MIC) NB01080. The gist of the method:
as §1

In test [3] the test system is P. aeruginosa NB52019, wild-type PAO1 strain. Description: MIC by broth microdilution, P. aeruginosa NB52019. Conditions: CAMHB, 35° C., 20 hours; for MIC: Pseudomonas aeruginosa, read-out: Antibacterial activity (MIC) NB52019. The essentials: as §1
Test [4] concerns S. pneumoniae ATCC 25922 (NB07001). Nature of the test: MIC by broth microdilution, S. pneumoniae NB07001. Conditions: for MIC: Streptococcus pneumoniae, ATCC25922, 20 h, read-out: Antibacterial activity (MIC) NB07001. The gist of the method: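 MIC in μg/mL taken as the lowest concentration with no visible growth, checked by 600 nm reading after 20 h at 35°C, ambient air. Strains tested per CLSI microdilution in cation-adjusted Mueller-Hinton broth at about 5×10^5 CFU/mL, compounds as two-fold series, 1% DMSO final.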
(Broth dilution looks for growth in wells or tubes with falling amounts of substance.)

Test [5] deals with S. aureus ATCC 49951 (NB01006). Nature of the test: MIC by broth microdilution, S. aureus NB01006. Conditions: 35° C., 20 hours; for MIC: Staphylococcus aureus, ATCC49951, CAMHB, read-out: Antibacterial activity (MIC) NB01006. The gist of the method:
as §1

For test [6], the system named is S. aureus NB01006-AVR005, gyrA (S84L), grlA (580F) and grlB (E471K). Nature of the test: microbe, parasite or virus in culture. To be noted: for MIC: Staphylococcus aureus, 20 h, read-out: Antibacterial activity (MIC) NB01006-AVR005. The essentials: as §1
Test [7] deals with E. faecalis ATCC 29212 (NB04001). Nature of the test: MIC by broth microdilution, E. faecalis NB04001. Conditions: 35° C., 20 hours; for MIC: Enterococcus faecalis, ATCC29212, CAMHB, read-out: Antibacterial activity (MIC) NB04001. The essentials:
as §1

Regarding `Cc1c(F)c(N2CC[C@@H](C3(N)CC3)C2)c2c3c1cc(C(=O)O)c(=O)n3[C@@H](C)CO2` [Example 22, (S)-10-((R)-3-(1-aminocyclopropyl)pyrrolidin-1-yl)-9-fluoro-3,8-dimethyl-5-oxo-2,3-dihydro-5H-[1,4]oxazino[2,3,4-ij]quinoline-6-carboxylic acid], the MIC in test [1] was 1 to 32 µg/mL (≈ 2.49 to 79.7 µM); in test [2], < 1 µg/mL; in test [3] it was > 32 µg/mL; in test [4] it was < 1 µg/mL; in test [5], < 1 µg/mL; in test [6] it was 1 to 32 µg/mL (≈ 2.49 to 79.7 µM). Moreover, the MIC in test [7] is < 1 µg/mL.
Take `CCc1c(F)c(N2CC[C@@H](C3(N)CC3)C2)c2c3c1cc(C(=O)O)c(=O)n3[C@@H](C)CO2` [Example 23, (S)-10-((R)-3-(1-aminocyclopropyl)pyrrolidin-1-yl)-8-ethyl-9-fluoro-3-methyl-5-oxo-2,3-dihydro-5H-[1,4]oxazino[2,3,4-ij]quinoline-6-carboxylic acid]: the MIC was > 32 µg/mL in test [1]; 1 to 32 µg/mL (≈ 2.41 to 77 µM) in test [2]; > 32 µg/mL in test [3]; 1 to 32 µg/mL (≈ 2.41 to 77 µM) in test [4]; 1 to 32 µg/mL (≈ 2.41 to 77 µM) in test [5]; > 32 µg/mL in test [6]. In addition, the MIC in test [7] fell in the range of 1 to 32 µg/mL (≈ 2.41 to 77 µM).
For the compound `COc1c(N2C[C@@H]3CCCN[C@@H]3C2)c(F)cc2c(=O)c(C(=O)O)cn(C3CC3)c12` [MOX, moxifloxacin, reference compound], the MIC in test [1] was < 1 µg/mL; in test [2], > 32 µg/mL; in test [3], 1 to 32 µg/mL (≈ 2.49 to 79.7 µM); in test [4], < 1 µg/mL; in test [5] it was < 1 µg/mL; in test [6], 1 to 32 µg/mL (≈ 2.49 to 79.7 µM). The MIC in test [7] was < 1 µg/mL.
As to “(S)-9-fluoro-3-methyl-10-((R)-3-(1-((2,2,2-trifluoroacetyl)-14-azanyl)cyclopropyl)pyrrolidin-1-yl)-2,3-dihydro-5H-[1,4]oxazino[2,3,4-ij]quinolin-5-one trifluoroacetate salt [Example 6.1]”, the “Antibacterial activity (MIC) NB27001” value in test [1] (CAMHB) is recorded as “B (32 > B ≥ 1)”. Besides, the “Antibacterial activity (MIC) NB01080” value in test [2] is “A (1 > A)”. The “Antibacterial activity (MIC) NB52019” value in test [3] was “C (C ≥ 32)”. For the same compound, in test [4] (S. pneumoniae, CAMHB supplemented with 5% lysed horse blood, 35° C., 20 hours), the “Antibacterial activity (MIC) NB07001” value is “A (1 > A)”. Besides, the “Antibacterial activity (MIC) NB01006” value in test [5] (CAMHB) is “A (1 > A)”. In addition, in test [6] (ciprofloxacin-selected S. aureus mutant, CAMHB, 35° C., 20 hours), the “Antibacterial activity (MIC) NB01006-AVR005” value is given as “A (1 > A)”. For the same compound, the “Antibacterial activity (MIC) NB04001” value in test [7] (CAMHB) is “A (1 > A)”.

Values taken from patent publication US20180318311A1, “TRICYCLIC 2-QUINOLINONES AS ANTIBACTERIALS” (priority 2017, published 2018).
